Where a name gives a salt, the structure may show the parent alone. A value given as a limit tells only on which side of the number the result lay.

The target of one test is T1, human XIAP_BIR3 domain purified protein (Homo sapiens, UniProt P98170).
T1 construct: purchased R & D
T1 sequence (P98170 252-356 limits assumed): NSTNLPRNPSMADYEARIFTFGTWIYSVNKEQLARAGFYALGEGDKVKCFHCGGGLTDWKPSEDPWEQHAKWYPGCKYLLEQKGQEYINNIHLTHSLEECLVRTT
Description: XIAP binding inhibitory activity, HTRF method with b-Smac ligand. Conditions: second symbol of the cell; read-out: XIAP binding 50% inhibitory concentration (IC50 value). As for the experimental part:
Human XIAP binding inhibitory activity were measured by the Homogeneous Time Resolved Fluorescence (HTRF) method with using commercially available human XIAP_BIR3 domain purified protein (R & D) and as a ligand a Smac N-terminal peptide (AVPIAQK (SEQ ID NO: 1)) (hereinafter referred to as “b-Smac”; Peptide Research Laboratories, Inc.) biotinylated at the C-terminus according to a conventional method.
The HTRF method will be described in detail below. A test compound diluted with a reaction buffer was added to a 384-well white shallow bottom plate (Greiner 784076) at 1 μL/well and flash centrifuged for 30 seconds. Subsequently, human XIAP_BIR3 domain purified protein was diluted with the reaction buffer (25 mM HEPES Buffer containing 100 mM NaCl, 0.1% BSA, and 0.1% triton X-100, pH 7.5) to obtain a 90 nM sample diluent, and the resultant sample diluent was added to the above-mentioned white superficial plate at 4.5 μL/well and flash centrifuged for 30 seconds. Subsequently, b-Smac diluted to 90 nM with the reaction buffer was added to the above-mentioned white superficial plat at 4.5 μL/well and flash centrifuged for 30 seconds. A mixed solution of Anti-6 HIS-Cryptate (Eu3+Cryptate-conjugated mouse monoclonal antibody anti-6 Histidine; cisbio) and Streptavidin-XL^ent! (Highgrade XL665-conjugated streptavidin; cisbio) both diluted 100-fold with HTRF detection buffer (cisbio) at a volume ratio of 1:1 was added to the above white superficial plate at 10 μL/well. After flash centrifuging the white shallow bottom plate for 30 seconds, the white shallow bottom plate was left at room temperature for 4 hours or more in the dark. The white superficial plate after being left was subjected to fluorescence intensity measurement (excitation wavelength: 320 nm, fluorescence wavelength: 665 nm and 615 nm) by EnVision (Perkin Elmer).
The binding inhibition rate (%) was calculated based on the HTRF ratio in the presence of the test compound to the HTRF ratio in the absence of the test compound (fluorescence intensity at 665 nm/fluorescence intensity at 615 nm).
Take `CN[C@@H](C)C(=O)N[C@H](C(=O)N1CCN(C(=O)c2cc3c(OCCOCCOCCO)c(F)c(F)cc3n2C)CC1)C1CCCCC1` [Example 67, (S)—N—((S)-1-Cyclohexyl-2-(4-(5,6-difluoro-4-(2-(2-(2-hydroxyethoxy)ethoxy)ethoxy)-1-methyl-1H-indole-2-carbonyl)piperazin-1-yl)-2-oxoethyl)-2-(methylamino)propanamide]: the IC50 fell in the range of 0.3 to 3 µM.

Turning to `CN[C@@H](C)C(=O)N[C@H](C(=O)N1CCN(C(=O)c2c(C(=O)NCCOCCOCCOCCN3CCN(c4cc(Nc5ncc(C(=O)Nc6c(C)cccc6Cl)s5)nc(C)n4)CC3)c3cc(F)c(F)cc3n2C)CC1)C1CCCCC1` [Example 82, N-(2-Chloro-6-methylphenyl)-2-((6-(4-(1-(2-(4-((S)-2-cyclohexyl-2-((S)-2-(methylamino)propanamido)acetyl)piperazine-1-carbonyl)-5,6-difluoro-1-methyl-1H-indol-3-yl)-1-oxo-5,8,11-trioxa-2-azatridecan-13-yl)piperazin-1-yl)-2-methylpyrimidin-4-yl)amino)thiazole-5-carboxamide Trifluoroacetate], the IC50 fell in the range of 0.3 to 3 µM.

In the case of `CN[C@@H](C)C(=O)N[C@H](C(=O)N1CCN(C(=O)c2cc3cc(F)c(F)cc3n2CCOC)CC1)C1CCCCC1` [Example 54, (S)—N—((S)-1-Cyclohexyl-2-(4-(5,6-difluoro-1-(2-methoxyethyl)-1H-indole-2-carbonyl)piperazin-1-yl)-2-oxoethyl)-2-(methylamino)propanamide], the IC50 fell in the range of 3 to 30 µM.

`CN[C@@H](C)C(=O)N[C@H](C(=O)N1CCN(C(=O)c2c(C(=O)NCCOCCOCCOCCNC(=O)C[C@@H]3N=C(c4ccc(Cl)cc4)c4c(sc(C)c4C)-n4c(C)nnc43)c3ccc(OC)cc3n2C)CC1)C1CCCCC1` [Example 73, N-(1-((S)-4-(4-chlorophenyl)-2,3,9-trimethyl-6H-thieno[3,2-f][1,2,4]triazolo[4,3-a][1,4]diazepin-6-yl)-2-oxo-6,9,12-trioxa-3-azatetradecan-14-yl)-2-(4-((S)-2-cyclohexyl-2-((S)-2-(methylamino)propanamido)acetyl)piperazine-1-carbonyl)-6-methoxy-1-methyl-1H-indole-3-carboxamide]: the IC50 was less than 0.3 µM.

`CN[C@@H](C)C(=O)N[C@H](C(=O)N1CCN(C(=O)c2cc3c(OCCOCCOCCOCc4ccccc4)c(F)c(F)cc3n2C)CC1)C1CCCCC1` [Example 66, (S)—N—((S)-2-(4-(4-(2-(2-(2-(Benzyloxy)ethoxy)ethoxy)ethoxy)-5,6-difluoro-1-methyl-1H-indole-2-carbonyl)piperazin-1-yl)-1-cyclohexyl-2-oxoethyl)-2-(methylamino)propanamide]: the IC50 lay within 3 to 30 µM.

As to `CN[C@@H](C)C(=O)N[C@H](C(=O)N1CCN(C(=O)c2cc3cc(F)c(F)cc3n2CCOCCO)CC1)C1CCCCC1` [Example 45, (S)—N—((S)-1-Cyclohexyl-2-(4-(5,6-difluoro-1-(2-(2-hydroxyethoxy)ethyl)-1H-indole-2-carbonyl)piperazin-1-yl)-2-oxoethyl)-2-(methylamino)propanamide], the IC50 was 3 to 30 µM.

`CN[C@@H](C)C(=O)N[C@H](C(=O)N1CCN(C(=O)c2cc3cc(F)ccc3n2C)C[C@H]1C)C1CCCCC1` [Example 58, (S)—N—((S)-1-Cyclohexyl-2-((R)-4-(5-fluoro-1-methyl-1H-indole-2-carbonyl)-2-methylpiperazin-1-yl)-2-oxoethyl)-2-(methylamino)propanamide Trifluoroacetate]: the IC50 was in the range of 0.3 to 3 µM.

Staying with this test, now noted: test compound 3 μM; first symbol of the cell; read-out: XIAP binding inhibition rate when the concentration of the test compound is 3 μM.
With `CN[C@@H](C)C(=O)N[C@H](C(=O)N1CCN(C(=O)c2cc(C3CC3)nn2C)CC1)C1CCCCC1` [Example 9, (S)-N-((S)-1-cyclohexyl-2-(4-(3-cyclopropyl-1-methyl-1H-pyrazole-5-carbonyl)piperazin-1-yl)-2-oxoethyl)-2-(methylamino)propanamide], the inhibition at 3 µM was more than 25%.

Turning to `CCCc1cc(C(=O)N2CCN(C(=O)[C@@H](NC(=O)[C@H](C)NC)C3CCCCC3)CC2)n(C)n1` [Example 10, (S)-N-((S)-1-cyclohexyl-2-(4-(1-methyl-3-propyl-1H-pyrazole-5-carbonyl)piperazin-1-yl)-2-oxoethyl)-2-(methylamino)propanamide], the inhibition at 3 µM was more than 25%.

As for `CN[C@@H](C)C(=O)N[C@H](C(=O)N1CCN(C(=O)c2c(C(=O)N3CCC[C@@H]3COC)c3ccc(OC)cc3n2C)CC1)C1CCCCC1` [Example 30, (S)—N—((S)-1-Cyclohexyl-2-(4-(6-methoxy-3-((R)-2-(methoxymethyl)pyrrolidine-1-carbonyl)-1-methyl-1H-indole-2-carbonyl)piperazin-1-yl)-2-oxoethyl)-2-(methylamino)propanamide Hydrochloride], the inhibition at 3 µM was in the range of 50 to 75%.

Take `CN[C@@H](C)C(=O)N[C@H](C(=O)N1CCN(C(=O)c2cc3ccc(OC)cc3n2C)CC1)C1CCCCC1` [Example 1, (S)—N—((S)-1-Cyclohexyl-2-(4-(6-methoxy-1-methyl-1H-indole-2-carbonyl)piperazin-1-yl)-2-oxoethyl)-2-(methylamino)propanamide Hydrochloride]: the inhibition at 3 µM was more than 75%.

`CN[C@@H](C)C(=O)N[C@H](C(=O)N1CCN(C(=O)c2ccc3nn(C)cc3c2)CC1)C1CCCCC1` [Example 22, (S)-N-((S)-1-cyclohexyl-2-(4-(2-methyl-2H-indazole-5-carbonyl)piperazin-l-yl)-2-oxoethyl)-2-(methylamino)propanamide]: the inhibition at 3 µM lay within 25 to 50%.

For `CN[C@@H](C)C(=O)N[C@H](C(=O)N1CCN(C(=O)c2c(/C=C/C(=O)OC)c3cc(F)ccc3n2C)CC1)C1CCCCC1` [Example 43, Methyl (E)-3-(2-(4-((S)-2-cyclohexyl-2-((S)-2-(methylamino)propanamido)acetyl)piperazine-1-carbonyl)-5-fluoro-1-methyl-1H-indol-3-yl)acrylate Hydrochloride], the inhibition at 3 µM was more than 75%.

On to `CN[C@@H](C)C(=O)N[C@H](C(=O)N1CCN(C(=O)c2c(C(=O)N3CC(OC)C3)c3ccc(OC)cc3n2C)CC1)C1CCCCC1` [Example 31, (S)—N—((S)-1-Cyclohexyl-2-(4-(6-methoxy-3-(3-methoxyazetidine-1-carbonyl)-1-methyl-1H-indole-2-carbonyl)piperazin-1-yl)-2-oxoethyl)-2-(methylamino)propanamide Hydrochloride], for which the inhibition at 3 µM lay in the range of 50 to 75%.

As for `CN[C@@H](C)C(=O)N[C@H](C(=O)N1CCN(C(=O)c2c(C(=O)NCCOCCOCCOCC(=O)N3CCN(c4cc(Nc5ncc(C(=O)Nc6c(C)cccc6Cl)s5)nc(C)n4)CC3)c3cc(F)ccc3n2C)CC1)C1CCCCC1` [Example 84, N-(2-chloro-6-methylphenyl)-2-((6-(4-(1-(2-(4-((S)-2-cyclohexyl-2-((S)-2-(methylamino)propanamido)acetyl)piperazine-1-carbonyl)-5-fluoro-1-methyl-1H-indol-3-yl)-1-oxo-5,8,11-trioxa-2-azatridecan-13-oyl)piperazin-1-yl)-2-methylpyrimidin-4-yl)amino)thiazole-5-carboxamide], the inhibition at 3 µM lay in the range of 50 to 75%.

Turning to `CN[C@@H](C)C(=O)N[C@H](C(=O)N1CCN(C(=O)c2c(C(=O)NCCOCCOCC(=O)N3CCN(c4cc(Nc5ncc(C(=O)Nc6c(C)cccc6Cl)s5)nc(C)n4)CC3)c3cc(F)ccc3n2C)CC1)C1CCCCC1` [Example 85, N-(2-chloro-6-methylphenyl)-2-((6-(4-(2-(2-(2-(2-(4-((S)-2-cyclohexyl-2-((S)-2-(methylamino)propanamido)acetyl)piperazine-1-carbonyl)-5-fluoro-1-methyl-1H-indole-3-carboxamido)ethoxy)ethoxy)acetyl)piperazin-1-yl)-2-methylpyrimidin-4-yl)amino)thiazole-5-carboxamide], the inhibition at 3 µM was in the range of 50 to 75%.

For `CN[C@@H](C)C(=O)N[C@H](C(=O)N1CCN(C(=O)c2c(C(=O)N(C)CCOC)c3ccc(OC)cc3n2C)CC1)C1CCCCC1` [Example 26, 2-(4-((S)-2-Cyclohexyl-2-((S)-2-(methylamino)propanamido)acetyl)piperazine-1-carbonyl)-6-methoxy-N-(2-methoxyethyl)-N,1-dimethyl-1H-indole-3-carboxamide Hydrochloride], the inhibition at 3 µM lay in the range of 50 to 75%.

Take `CN[C@@H](C)C(=O)N[C@H](C(=O)N1CCN(C(=O)c2c(C(=O)N3CCC[C@H]3COC)c3ccc(OC)cc3n2C)CC1)C1CCCCC1` [Example 29, (S)—N—((S)-1-Cyclohexyl-2-(4-(6-methoxy-3-((S)-2-(methoxymethyl)pyrrolidine-1-carbonyl)-1-methyl-1H-indole-2-carbonyl)piperazin-1-yl)-2-oxoethyl)-2-(methylamino)propanamide Hydrochloride]: the inhibition at 3 µM lay in the range of 50 to 75%.

Values taken from patent publication US12202829B2, “Heterocyclic compound” (FIMECS, Inc., priority 2018, dated 2025).
